Legend:
ATM = molecular target: T1, ATM (Homo sapiens, UniProt Q13315); assay: ATM inhibition test (phosphorylation of Chk2 generated by ionizing radiation, AlphaScreen SureFire); assay type: cell-based; conditions: phosphorylated Chk2 in NCI-H460 cells, ionizing radiation 8Gy, 1 hour after test compound treatment; read-out: ATM inhibitory activity
T1 construct: detecting phosphorylation of Chk2 in a human non-small cell lung cancer cell line NCI-H460 (ATCC company); host or cells: NCI-H460 human non-small cell lung cancer cells
How it was run: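 Phosphorylated Chk2 read by AlphaScreen SureFire in human non-small cell lung cancer NCI-H460 cells, 1 hour after 8Gy ionizing radiation at 37° C. Compound added 1 hour before irradiation. Percent inhibition normalised between irradiated and non-irradiated drug-untreated signals.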

[1] = test system: human non-small cell lung cancer cell line NCI-H460; assay: Cell proliferation inhibition test by sensitivity-enhancing to ionizing radiation (Cell Titer Glo); assay type: cell-based; conditions: concentration in which SER became 2, NCI-H460 cells, ionizing radiation 2 Gy, cultured 120 hour; for SER2 (concentration at which the radiation sensitivity-enhancement ratio reaches 2): Homo sapiens, NCI-H460, 120 h
How it was run: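 Cells seeded at 2×10^3 cells/mL in RPMI-1640 with 10% FBS; after 24 h, compound added (0.1% DMSO), and 30 min later half the plates irradiated at 2 Gy. After 120 hour at 37° C, viability by Cell Titer Glo luminescence; SER2 is the concentration giving SER of 2 by sigmoidal fit.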

T1 sequence (Q13315 whole entry): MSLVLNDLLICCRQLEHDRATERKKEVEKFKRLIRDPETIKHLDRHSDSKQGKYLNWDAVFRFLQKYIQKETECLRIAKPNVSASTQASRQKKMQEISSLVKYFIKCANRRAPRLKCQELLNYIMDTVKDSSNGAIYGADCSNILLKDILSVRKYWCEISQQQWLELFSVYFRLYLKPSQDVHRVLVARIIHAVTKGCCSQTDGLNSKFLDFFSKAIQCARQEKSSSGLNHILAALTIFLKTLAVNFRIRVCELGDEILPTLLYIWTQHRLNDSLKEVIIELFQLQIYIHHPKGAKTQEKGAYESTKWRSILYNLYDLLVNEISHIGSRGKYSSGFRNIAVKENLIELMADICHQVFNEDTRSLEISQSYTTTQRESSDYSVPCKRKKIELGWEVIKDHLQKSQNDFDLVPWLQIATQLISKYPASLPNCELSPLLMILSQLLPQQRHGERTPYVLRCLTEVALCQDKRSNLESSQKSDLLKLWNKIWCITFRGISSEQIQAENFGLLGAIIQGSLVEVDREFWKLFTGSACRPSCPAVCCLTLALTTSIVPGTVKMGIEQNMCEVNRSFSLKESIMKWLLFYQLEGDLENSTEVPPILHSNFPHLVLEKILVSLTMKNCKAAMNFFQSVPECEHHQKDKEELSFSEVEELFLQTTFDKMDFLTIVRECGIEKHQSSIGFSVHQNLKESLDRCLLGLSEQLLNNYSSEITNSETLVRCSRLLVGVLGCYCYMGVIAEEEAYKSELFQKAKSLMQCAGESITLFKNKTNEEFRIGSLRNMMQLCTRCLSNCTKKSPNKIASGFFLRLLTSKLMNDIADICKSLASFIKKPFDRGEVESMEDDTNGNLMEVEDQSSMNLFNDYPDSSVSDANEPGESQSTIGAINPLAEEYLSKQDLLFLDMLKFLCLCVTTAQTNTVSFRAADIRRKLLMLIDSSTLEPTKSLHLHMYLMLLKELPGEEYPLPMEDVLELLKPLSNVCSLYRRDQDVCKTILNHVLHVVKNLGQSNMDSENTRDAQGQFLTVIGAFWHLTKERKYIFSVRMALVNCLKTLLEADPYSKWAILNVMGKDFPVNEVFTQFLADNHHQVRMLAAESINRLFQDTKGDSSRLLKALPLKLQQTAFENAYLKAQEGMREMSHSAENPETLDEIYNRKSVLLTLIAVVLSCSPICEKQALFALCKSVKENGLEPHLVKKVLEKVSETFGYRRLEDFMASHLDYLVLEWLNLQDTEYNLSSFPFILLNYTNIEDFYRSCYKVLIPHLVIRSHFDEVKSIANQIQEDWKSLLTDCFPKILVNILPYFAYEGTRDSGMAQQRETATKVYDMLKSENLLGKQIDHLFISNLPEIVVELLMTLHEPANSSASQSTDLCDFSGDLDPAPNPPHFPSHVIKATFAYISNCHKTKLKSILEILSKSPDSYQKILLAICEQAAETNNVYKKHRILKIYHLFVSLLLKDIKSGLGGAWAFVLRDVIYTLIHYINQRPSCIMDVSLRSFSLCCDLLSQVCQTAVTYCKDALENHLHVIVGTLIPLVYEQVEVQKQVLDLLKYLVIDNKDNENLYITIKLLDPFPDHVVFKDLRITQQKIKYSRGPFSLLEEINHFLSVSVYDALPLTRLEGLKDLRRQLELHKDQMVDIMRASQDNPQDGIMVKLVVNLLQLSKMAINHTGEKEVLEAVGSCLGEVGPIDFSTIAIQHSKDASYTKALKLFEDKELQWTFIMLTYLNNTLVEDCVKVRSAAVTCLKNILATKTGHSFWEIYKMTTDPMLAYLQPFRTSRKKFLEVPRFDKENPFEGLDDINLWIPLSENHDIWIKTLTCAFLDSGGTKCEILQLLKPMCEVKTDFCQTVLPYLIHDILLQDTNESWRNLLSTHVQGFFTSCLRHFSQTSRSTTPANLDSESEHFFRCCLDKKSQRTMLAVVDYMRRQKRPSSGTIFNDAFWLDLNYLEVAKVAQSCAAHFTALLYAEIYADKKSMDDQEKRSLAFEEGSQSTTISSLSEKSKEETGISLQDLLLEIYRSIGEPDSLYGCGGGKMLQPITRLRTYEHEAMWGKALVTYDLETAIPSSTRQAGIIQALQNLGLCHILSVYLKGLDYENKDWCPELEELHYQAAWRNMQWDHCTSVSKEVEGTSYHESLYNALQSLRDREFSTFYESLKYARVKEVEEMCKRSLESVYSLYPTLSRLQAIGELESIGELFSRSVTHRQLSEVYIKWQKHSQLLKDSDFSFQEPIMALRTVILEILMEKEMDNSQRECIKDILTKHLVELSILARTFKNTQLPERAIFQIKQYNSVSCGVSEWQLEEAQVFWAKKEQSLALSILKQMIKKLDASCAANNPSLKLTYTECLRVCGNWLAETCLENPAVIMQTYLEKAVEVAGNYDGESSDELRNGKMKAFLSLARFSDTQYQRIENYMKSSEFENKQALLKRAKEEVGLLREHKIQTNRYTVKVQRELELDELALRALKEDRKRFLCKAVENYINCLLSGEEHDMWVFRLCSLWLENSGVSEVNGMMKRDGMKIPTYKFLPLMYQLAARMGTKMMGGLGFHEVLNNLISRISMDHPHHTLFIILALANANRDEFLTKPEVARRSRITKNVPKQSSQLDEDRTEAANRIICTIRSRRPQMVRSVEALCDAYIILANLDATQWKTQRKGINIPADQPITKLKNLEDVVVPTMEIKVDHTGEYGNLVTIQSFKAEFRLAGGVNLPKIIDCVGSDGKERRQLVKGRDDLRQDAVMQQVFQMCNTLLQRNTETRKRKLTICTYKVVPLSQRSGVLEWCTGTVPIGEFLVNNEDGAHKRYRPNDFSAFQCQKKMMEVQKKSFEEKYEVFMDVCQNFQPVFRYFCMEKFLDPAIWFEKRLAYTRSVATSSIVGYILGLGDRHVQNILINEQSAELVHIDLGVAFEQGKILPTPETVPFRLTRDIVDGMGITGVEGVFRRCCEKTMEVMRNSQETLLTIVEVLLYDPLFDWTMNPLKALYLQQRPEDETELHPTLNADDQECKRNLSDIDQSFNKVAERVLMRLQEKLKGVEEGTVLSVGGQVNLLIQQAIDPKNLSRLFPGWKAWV

| IC50 (ATM) [nM] | SMILES | SER2 (concentration at which the radiation sensitivity-enhancement ratio reaches 2) [1] [nM] | IC50 ([1]; read-out: SER2) [nM] |
| --- | --- | --- | --- |
| < 100 | O=c1cc(N2CCOCC2)cc(-c2cccc3c2Oc2ccc(NCc4cncc(F)c4)cc2S3)[nH]1 [Example 4-8-12, 6-(8-(((5-Fluoropyridin-3-yl)methyl)amino)phenoxathiin-4-yl)-4-morpholino pyridin-2(1H)-one] | 100 to 500 |  |
| < 100 | Cc1cncc(C(C)Nc2ccc3c(c2)Sc2cccc(-c4cc(N5CCOCC5)cc(=O)[nH]4)c2O3)c1 (centres unmarked) [Example 4-4-29, 6-(8-((1-(5-Methylpyridin-3-yl)ethyl)amino)phenoxathiin-4-yl)-4-morpholino pyridin-2(1H)-one] | 100 to 500 |  |
| < 100 | Cc1cccc(C(C)Nc2ccc3c(c2)Sc2cccc(-c4cc(N5CCOCC5)cc(=O)[nH]4)c2O3)n1 (centres unmarked) [Example 4-4-30, 6-(8-((1-(6-Methylpyridin-2-yl)ethyl)amino)phenoxathiin-4-yl)-4-morpholino pyridin-2(1H)-one] | 100 to 500 |  |
| < 100 | N#Cc1cccc(CNc2ccc3c(c2)Sc2cccc(-c4cc(N5CCOCC5)cc(=O)[nH]4)c2O3)n1 [Example 4-4-25, 6-(((6-(4-Morpholino-6-oxo-1,6-dihydropyridin-2-yl)phenoxathiin-2-yl)amino)methyl)picolinonitrile] | 500 to 2000 |  |
| < 100 | O=c1cc(N2CCOCC2)cc(-c2cccc3c2Oc2ccc(NCc4ccc(Cl)nc4)cc2S3)[nH]1 [Example 4-8-25, 6-(8-(((6-Chloropyridin-3-yl)methyl)amino)phenoxathiin-4-yl)-4-morpholino pyridin-2(1H)-one] | 100 to 500 |  |

The remaining lines, values behind:

| SMILES | IC50 (ATM) [nM] | SER2 (concentration at which the radiation sensitivity-enhancement ratio reaches 2) [1] [nM] | IC50 ([1]; read-out: SER2) [nM] |
| --- | --- | --- | --- |
| CNc1ccc(CNc2ccc3c(c2)Cc2cccc(-c4cc(N5CCOCC5)cc(=O)[nH]4)c2O3)cn1 [Example 2-2-7, 6-(7-(((6-(Methylamino)pyridin-3-yl)methyl)amino)-9H-xanthen-4-yl)-4-morpholino pyridin-2 (1H)-one] | 100 to 500 | 100 to 500 |  |
| COc1cnc(C(C)Nc2ccc3c(c2)Cc2cccc(-c4cc(N5CCOCC5)cc(=O)[nH]4)c2O3)cn1 (centres unmarked) [Example 2-14-51, 6-(7-((1-(5-Methoxypyrazin-2-yl)ethyl)amino)-9H-xanthen-4-yl)-4-morpholino pyridin-2(1H)-one] | < 100 | 100 to 500 |  |
| Cc1ccc(C(CCC2OCCCO2)Nc2ccc3c(c2)Sc2cccc(-c4cc(N5CCOCC5)cc(=O)[nH]4)c2S3)nc1 (centres unmarked) [Example 1-12-131, 6-(7-((3-(1,3-Dioxan-2-yl)-1-(5-methylpyridin-2-yl)propyl)amino)thianthren-1-yl)-4-morpholino pyridin-2 (1H)-one] | < 100 | 100 to 500 |  |
| O=c1cc(N2CCOCC2)cc(-c2nccc3c2Oc2ccc(NCc4cc(Cl)ccn4)cc2C3)[nH]1 [Example 2-41-3, 6-(7-(((4-Chloropyridin-2-yl)methyl)amino)-5H-chromeno [2,3-c]pyridin-1-yl)-4-morpholino pyridin-2(1H)-one] | < 100 | 100 to 500 |  |
| O=c1cc(N2CCOCC2)cc(-c2c(F)ccc3c2Oc2ccc(NCc4cncc(Cl)c4)cc2C3)[nH]1 [Example 2-46-2, 6-(7-(((5-Chloropyridin-3-yl)methyl)amino)-3-fluoro-9H-xanthen-4-yl)-4-morpholinopyridin-2(1H)-one] | < 100 | 100 to 500 |  |
| Cc1cnc(C(CCN2CCOCC2)Nc2ccc3c(c2)Sc2cccc(-c4cc(N5CCOCC5)cc(=O)[nH]4)c2S3)cn1 (centres unmarked) [Example 1-50-1, 6-(7-((1-(5-methylpyrazin-2-yl)-3-morpholinopropyl)amino)thianthren-1-yl)-4-morpholinopyridin-2(1H)-one] | < 100 | < 100 |  |
| Cc1nccc(C(C)Nc2ccc3c(c2)Sc2cccc(-c4cc(N5CCOCC5)cc(=O)[nH]4)c2S3)n1 (single isomer, unassigned) [Example 1-12-141-1, 6-(7-((1-(2-methylpyrimidin-4-yl)ethyl)amino)thianthren-1-yl)-4-morpholinopyridin-2(1H)-one] | < 100 | 100 to 500 |  |
| Cc1cccc(C(CCN(C)C)Nc2ccc3c(c2)Sc2cccc(-c4cc(N5CCOCC5)cc(=O)[nH]4)c2S3)n1 (single isomer, unassigned) [Example 1-22-11-1, 6-(7-((3-(dimethylamino)-1-(6-methylpyridin-2-yl)propyl)amino)thianthren-1-yl)-4-morpholinopyridin-2(1H)-one] | < 100 | 100 to 500 |  |
| CC(CN1C[C@@H](C)O[C@@H](C)C1)Nc1ccc2c(c1)Sc1cccc(-c3cc(N4CCOCC4)cc(=O)[nH]3)c1S2 (stereo partly drawn) [Example 1-13-12, 6-(7-((1-((2S,6R)-2,6- Dimethylmorpholino)propan-2-yl)amino)thianthren-1-yl)-4-morpholino pyridin-2(1H)-one] | < 100 | 100 to 500 |  |
| Cc1ccc(C2(Nc3ccc4c(c3)Sc3cccc(-c5cc(N6CCOCC6)cc(=O)[nH]5)c3S4)CC2)nc1 [Example 1-50-5, 6-(7-((1-(5-Methylpyridin-2-yl)cyclopropyl)amino)thianthren-1-yl)-4-morpholino pyridin-2(1H)-one] | < 100 | 100 to 500 |  |
| O=c1cc(N2CCOCC2)cc(-c2cccc3c2Sc2ccc(NCc4ccnc(Cl)c4)cc2S3)[nH]1 [Example 1-12-18] | < 100 |  | 100 to 500 |

Reference: patent publication US9586951B2 (FUJIFILM Corporation, priority 2013, dated 2017)
